This is an account of results in US20250129054A1 (Terran Biosciences Inc., priority 2022, published 2025).

Each structure is given as a SMILES string.

For this series, the system named is rat elevated zero maze model of anxiety. Put plainly: Rat elevated zero maze model of anxiety (% time on open areas, stretched attend postures). Format: in vivo, Sprague-Dawley rats. From the text: The rat zero-maze model is a refined alternative to the plus-maze, the most widely used animal model of anxiety, and consists of an elevated annular platform, divided equally into four quadrants. Two opposite quadrants are enclosed by Perspex walls on both the inner and the outer edges of the platform, while the remaining two opposite quadrants are open being enclosed only by a Perspex “lip”. Animals will show a preference for the closed areas, and avoidance of the open sections is assumed to stem from a rodent's natural aversion to open, exposed spaces. The primary index of anxiety, which reflect changes in open arm preference, is the percentage of time spent on the open areas. A reduction in the amount of activity on the open areas is considered to reflect an increase in anxiety. Other, ethologically-based behaviours are also assessed as indices of anxiety. One of the most important is stretched attend postures (SAP) from closed to open quadrants. […] Shepherd, J K; et al., (1994) Behavioural and pharmacological validation of the elevated “zero-maze” as an animal model of anxiety. Psychopharmacol., 116:56-64.
Male Sprague-Dawley 200-250 g (Envigo UK) rats were used. Animals were group-housed (5 per cage; cage size: 40×40×20 cm) in a temperature-controlled environment (22±2° C.), under a 12 h light-dark cycle (lights on: 08:00 hours) for one week prior to testing. Food and water were freely available. Number of animals per group=5. Animals were moved into the experimental room 16-24 hours before testing.
The elevated 0-maze comprises a black Perspex annular platform (105 cm diameter, 10 cm width) elevated to 65 cm above ground level, divided equally into four quadrants. Two opposite quadrants are enclosed by clear red Perspex walls (27 cm high) on both the inner and outer edges of the platform, while the remaining two opposite quadrants are surrounded only by a Perspex “lip” (1 cm high) which serves as a tactile guide to animals on these open areas.
Subjects were weighed and tail marked before being injected. After a specified pre-treatment time, subjects were placed in a closed quadrant and a 5-min test period were recorded on videotape for subsequent analysis. The maze were cleaned with 5% methanol/water solution and dried thoroughly between test sessions. Behavioural measures comprise percentage time spent on the open areas (% TO) and frequency of stretched attend postures (SAP) from closed to open quadrants. Since the control groups were all treated identically with the same vehicle these were combined to increase power. The Chlordiazepoxide groups were also treated identically with the same dose so these were also combined to increase power. Animals are scored as being in the open area when all four paws were in an open quadrant and in the closed area only when all four paws have passed over the open-closed divide. All testing were carried out between 9.00 and 16.00 hours.
For each study, a 1-way ANOVA was conducted across vehicle, CDP, and drug treatment groups. Each group was compared to the vehicle group and a p-value for treatment determined by Fishers Least Significant Difference (LSD) test. This analysis was performed in GraphPad Prism (Version 9).
Intraperitoneal (IP): Racemic methylone HCl was formulated in Vehicle 1 (Saline) for injection to concentrations of 1, 3 and 6 mg/mL to provide doses of 5, 15 and 30 mg/kg when administered ip in 5 mL/kg dosing volumes.
Intraperitoneal (IP): S-methylone HCl was formulated in Vehicle 1 (Saline) for injection to concentrations of 0.5, 1, 1.5, 3 and 6 mg/mL to provide doses of 2.5, 5, 7.5, 15 and 30 mg/kg when administered ip in 5 mL/kg dosing volumes.
Intraperitoneal (IP): R-methylone HCl was formulated in Vehicle 1 (Saline) for injection to concentrations of 1, 3 and 6 mg/mL to provide doses of 5, 15 and 30 mg/kg when administered ip in 5 mL/kg dosing volumes. […]

Setting [1] is: 30 mg/kg ip, 30 min pretreatment, vs vehicle and chlordiazepoxide 6 mg/kg, male SD rats.
The mark [2] stands for this setting: specific (sufficient) doses ip, compared with chlordiazepoxide 6 mg/kg.

With `CNC(C)C(=O)c1ccc2c(c1)OCO2` (racemic) [racemic methylone], the “time spent in the open arms” value is “decrease in time spent in the open arms vs placebo” (5 mg/kg ip, 30 min pretreatment, vs vehicle, male SD rats); “no difference from placebo” (15 mg/kg ip, 30 min pretreatment, vs vehicle, male SD rats); “significant decrease in time spent in the open arms” under setting [1]. Also, the “frequency of SAPs” value (15 mg/kg ip, 30 min pretreatment, male SD rats) is listed as “dose dependent decrease in SAPs”; the “frequency of SAPs” value under setting [1] is “decrease in SAPs”; the “frequency of SAPs” value under setting [2] is reported as “decreased the frequency of SAPs as effectively as the benzodiazepine chlordiazepoxide”. The anxiogenic effect result (across the doses tested, ip, male SD rats) was “show anxiogenic effects at lower doses”. In addition, the “time in the open arms” value under setting [2] is recorded as “increase time in the open arms”.
